# In patent publication US5736565A, “Therapeutic compounds suitable for the treatment of diseases connected with glutathione deficiency, process for their preparation, and pharmaceutical compositions containing same” (Prospa B.V., priority 1992, dated 1998):
# Where “and” joins values, the source holds several entries; their conditions need not be identical. Identical values can stand only once. Entries after “also recorded” stand apart in the source; their conditions may differ. Like-named read-outs stand apart in the source and are kept apart here. Peptide text beside a SMILES is read from it.
# Columns and labels:
# hepatic GSH = test: Test No. 4: dichloropropane (DCP) intoxication in vivo, hepatic GSH; design: species or system rat
# Experimental: A test was carried out in vivo on four groups of four rats each, using, as a toxic substance, dichloropropane (DCP), the main constituent of several solvents. DCP is noxious both by ingestion and inhalation and has a notable toxicity to the liver, mediated by an almost total depletion of thiol groups, including those of GSH.
# The experimental model involves the study of the effect of DCP toxicity in the rat, in respect of glutathione (GSH) concentration in the main target tissue: the liver.
# Tests were carried out on four groups of rats. The first group of animals was administered 2 ml DCP/kg dissolved in oil (40% v/v) per os. Twenty-four hours after DCP administration, blood samples were taken for SGPT measurement, while the animals were sacrificed; small portions of liver were then excised and immediately deproteinized by homogenization in 6% PCA. The chromatographic analyses of GSH and GSSG (oxidized glutathione) were performed.
# The second group of animals was treated with the test drug (600 mg/kg i.p.) two hours after DCP administration. The third and fourth groups were treated with N-acetyl-cysteine (NAC) (250 mg/kg i.p.) and, respectively, with glutathione (Tationil^R) (600 mg/kg i.p.).
# An evaluation of the protective action of the test drug in respect of glutathione involvement in hepatic protection mechanisms was thus possible.
# [1] = test system: urethane-induced tumours of the lungs; test: Urethane-induced tumours of the lungs in albino Swiss mice; format: in vivo
# Experimental: Male albino adult Swiss mice (20-25 g) were used. All animals were inoculated i.p. with urethane. The animals were treated with PSC (600 mg/kg) 15 days prior to and after inoculation. Once the treatment was completed, the animals were sacrificed, their lungs excised and subjected to necrohistologic examination.
# hepatocytes = test: Tests in vitro: vitality of isolated rat hepatocytes; format: cell-based; details: for viability at 250 µM / viability at 500 µM / viability at 1000 µM / viability at 2500 µM / viability at 5000 µM: Rattus norvegicus, Hepatocyte, read-out: Cells vitality; for viability at 1000 µM: DEM + 1.0 mM; for viability at 5000 µM: DEM + 5.0 mM
# Experimental: The experimental model envisages the isolation of hepatic parenchymal cells of rats following perfusion, with collagenase, of the isolated organ. Prior to each test, hepatocytes vitality was quantified by Tripan Blue […]. Only the cells with a vitality greater than 90% were utilized. Hepatocytes were resuspended, at a concentration of 10^6 cells/ml, in a saline medium (Krebs Heinseleit) at ph 7.4, and then placed into rotating flasks in the presence of O2 (95%) and CO2 (5%), at 37° C. Cells keep vital for 5-6 hours at least.
# […] The cells were then washed for 30 min. and incubated with various concentrations of the test substance (from 0.25 to 5 mM).
# By this experimental model it is possible to test the effect of the substance by evaluating the hepatic functionality determined by measurements of the vitality (Tables Nos. 3, 4, and 5) and of glutathione content (Tables 6, 7, and 8).
# In the Tables 3-8 herein below reported, the controls are represented by normal hepatocytes, not treated either with DEM or with compound (I).
# [2] = 600 mg/kg i.p., 30 days' treatment, 15 days after urethane i.p.
compound,measurement,setting,value
"CC(=O)SC[C@H](NC(=O)[C@@H]1CCC(=O)N1)C(=O)O [PSC, 2-(S)-(2-pyrrolidone-5-(S)-carbonyl amido)-3-acetylmercapto propionic acid] (HELM PEPTIDE1{[Glp].C}|PEPTIDE2{[ac]}$PEPTIDE1,PEPTIDE2,2:R3-1:R2$$$V2.0)",normalization of hepatic GSH (in words),hepatic GSH; DCP-treated rats,could not normalize the values of hepatic GSH
same,"GSH, average values","hepatic GSH; liver, DCP 2 ml/kg per os + 600 mg/kg i.p.",2.7 nmol/mg protein
same,"GSH, individual animals","hepatic GSH; liver, DCP 2 ml/kg per os + 600 mg/kg i.p., animals 1-4, listed as (I) (R = CH3), 600 mg/kg",2.6 nmol/mg protein and 2.4 nmol/mg protein and 3.4 nmol/mg protein
same,"Mice with neoplasms, %",[1]; [2],50%
same,Mice with neoplasms/group,[1]; [2],3/6
same,development of tumours of the lungs (in words),[1]; chronic treatment,"significantly slowed down the development of tumours of the lungs; also recorded: its action seems most potent on the tumours directly induced by contact with a chemical carcinogen, such as urethane"
same,viability at 250 µM,"hepatocytes; 0 h, DEM + 0.25 mM, 0 time (Table 4)",95%
same,viability at 500 µM,"hepatocytes; 0 h, DEM + 0.50 mM, 0 time (Table 4)",95%
same,viability at 1000 µM,"hepatocytes; 0 h, 0 time (Table 5)",96%
same,viability at 2500 µM,"hepatocytes; 0 h, DEM + 2.5 mM, 0 time (Table 5)",96%
same,viability at 5000 µM,"hepatocytes; 0 h, 0 time (Table 5)",96%
same,viability at 250 µM,"hepatocytes; 0 h, no DEM, 0.25 mM, 0 time",100%
same,viability at 500 µM,"hepatocytes; 0 h, no DEM, 0.50 mM, 0 time",100%
same,viability at 2500 µM,"hepatocytes; 0 h, no DEM, 2.5 mM, 0 time",100%
same,viability at 250 µM,"hepatocytes; 0.5 h, DEM + 0.25 mM, 30 min (Table 4)",90%
same,viability at 500 µM,"hepatocytes; 0.5 h, DEM + 0.50 mM, 30 min (Table 4)",88%
same,viability at 1000 µM,"hepatocytes; 0.5 h, 30 min (Table 5)",92%
same,viability at 2500 µM,"hepatocytes; 0.5 h, DEM + 2.5 mM, 30 min (Table 5)",89%
same,viability at 5000 µM,"hepatocytes; 0.5 h, 30 min (Table 5)",88%
same,viability at 250 µM,"hepatocytes; 0.5 h, no DEM, 0.25 mM, 30 min",101%
same,viability at 500 µM,"hepatocytes; 0.5 h, no DEM, 0.50 mM, 30 min",101%
same,viability at 2500 µM,"hepatocytes; 0.5 h, no DEM, 2.5 mM, 30 min",94%
same,viability at 250 µM,"hepatocytes; 1 h, DEM + 0.25 mM, 1 hr (Table 4)",87%
same,viability at 500 µM,"hepatocytes; 1 h, DEM + 0.50 mM, 1 hr (Table 4)",85%
same,viability at 1000 µM,"hepatocytes; 1 h, 1 hr (Table 5)",90%
same,viability at 2500 µM,"hepatocytes; 1 h, DEM + 2.5 mM, 1 hr (Table 5)",84%
same,viability at 5000 µM,"hepatocytes; 1 h, 1 hr (Table 5)",84%
same,viability at 250 µM,"hepatocytes; 1 h, no DEM, 0.25 mM, 1 hr",98%
same,viability at 500 µM,"hepatocytes; 1 h, no DEM, 0.50 mM, 1 hr",100%
same,viability at 2500 µM,"hepatocytes; 1 h, no DEM, 2.5 mM, 1 hr",95%
same,viability at 250 µM,"hepatocytes; 2 h, DEM + 0.25 mM, 2 hrs (Table 4)",86%
same,viability at 500 µM,"hepatocytes; 2 h, DEM + 0.50 mM, 2 hrs (Table 4)",84%
same,viability at 1000 µM,"hepatocytes; 2 h, 2 hrs (Table 5)",89%
same,viability at 2500 µM,"hepatocytes; 2 h, DEM + 2.5 mM, 2 hrs (Table 5)",83.5%
same,viability at 5000 µM,"hepatocytes; 2 h, 2 hrs (Table 5)",82%
same,viability at 250 µM,"hepatocytes; 2 h, no DEM, 0.25 mM, 2 hrs",100%
same,viability at 500 µM,"hepatocytes; 2 h, no DEM, 0.50 mM, 2 hrs",101%
same,viability at 2500 µM,"hepatocytes; 2 h, no DEM, 2.5 mM, 2 hrs",95%
same,viability at 250 µM,"hepatocytes; 4 h, DEM + 0.25 mM, 4 hrs (Table 4)",87%
same,viability at 500 µM,"hepatocytes; 4 h, DEM + 0.50 mM, 4 hrs (Table 4)",85%
same,viability at 1000 µM,"hepatocytes; 4 h, 4 hrs (Table 5)",88%
same,viability at 2500 µM,"hepatocytes; 4 h, DEM + 2.5 mM, 4 hrs (Table 5)",82%
same,viability at 5000 µM,"hepatocytes; 4 h, 4 hrs (Table 5)",80%
same,viability at 250 µM,"hepatocytes; 4 h, no DEM, 0.25 mM, 4 hrs",116%
same,viability at 500 µM,"hepatocytes; 4 h, no DEM, 0.50 mM, 4 hrs",114%
same,viability at 2500 µM,"hepatocytes; 4 h, no DEM, 2.5 mM, 4 hrs",104%
same,cellular suffering (in words),hepatocytes; hepatocytes treated with DEM then test substance,"a cellular suffering (cellular dilatation without appearance of vesicles) was at first detected, which disappeared after few tens of minutes"
same,cellular toxicity (in words),"hepatocytes; in vitro, up to 5 mM","does not cause cellular toxicity and, at least in vitro, is very well tolerated"
